# From patent publication US10647671B2, “Promysalin analogues and methods of use thereof” (Temple University—Of The Commonwealth System of Higher …, priority 2016, dated 2020)
# pIC50: −log10 of the molar value. Like-named read-outs stand apart in the source and are kept apart here.
# Tests used:
# P. aeruginosa PA01 = experiment: IC50 assay (OD595, 24 h) against PA01; format: cell-based; settings: Pseudomonas aeruginosa
# Procedure: (§1) P. aeruginosa PA01, and PA14 were gifts from Prof. George O'Toole (Dartmouth Medical School). Bacterial cultures were grown from freezer stocks overnight (16-24 hr) with shaking at 37° C. in Tryptic Soy Broth (TSB) media (10 mL). Growth curves were obtained for PA01 and PA14 to determine the OD of each strain in exponential growth; OD readings at 595 nm were taken every 10 minutes for 6 hours in a plate reader at 37° C. with shaking and repeated six times. (see FIGS. 6A and 6B) Compounds were serially diluted in sterile DI water from a stock solution (1 mM in 10% DMSO/90% H2O) to yield twenty-four test concentrations. Overnight cultures were diluted 1:100 in 5 mL fresh media and grown with shaking at 37° C. to an OD of 0.32 (see growth curves). Bacteria were diluted to a concentration of 0.004 using the following equation: (x μL O/N)(OD reading)=(0.004)(volume needed) and 100 μL was inoculated into each well of a flat-bottom 96-well plate (Corning 3370) containing 100 μL of compound solution. Plates were incubated statically at 37° C. for 24 hours, upon which time the OD at 595 nm was measured using a plate reader. IC50 values were calculated by fitting the OD readings vs. concentration with a 4 parameter logistic model. Controls were prepared by serially diluting a 10% DMSO/90% H2O the same as the compound stock solution. Compounds were tested in triplicate from separate O/N cultures and results averaged.
# P. aeruginosa PA14 = experiment: IC50 assay (OD595, 24 h) against PA14; format: cell-based, Pseudomonas aeruginosa; settings: Pseudomonas aeruginosa
# Procedure: (§2) P. aeruginosa PA01, and PA14 were gifts from Prof. George O'Toole (Dartmouth Medical School). Bacterial cultures were grown from freezer stocks overnight (16-24 hr) with shaking at 37° C. in Tryptic Soy Broth (TSB) media (10 mL). Growth curves were obtained for PA01 and PA14 to determine the OD of each strain in exponential growth; OD readings at 595 nm were taken every 10 minutes for 6 hours in a plate reader at 37° C. with shaking and repeated six times. (see FIGS. 6A and 6B)
# as §1, with “Compounds” for “P. aeruginosa PA01, and PA14 were gifts from Prof. George O'Toole (Dartmouth Medical School). Bacterial cultures were grown from freezer stocks overnight (16-24 hr) with shaking at 37° C. in Tryptic Soy Broth (TSB) media (10 mL). Growth curves were obtained for PA01 and PA14 to determine the OD of each strain in exponential growth; OD readings at 595 nm were taken every 10 minutes for 6 hours in a plate reader at 37° C. with shaking and repeated six times. (see FIGS. 6A and 6B) Compounds”
# Compounds were serially diluted in sterile DI water from a stock solution (10% DMSO/H2O) yielding 24 test concentrations. Bacteria were diluted to a final concentration of 0.004 from regrown overnight culture according to the following equation: (xμL bacterial culture)(OD reading)=(0.004)(total volume needed) and 100 μL was inoculated into each well of a flat-bottom 96-well plate (Corning 3370) containing 100 μL of compound solution. Plates were incubated statically at 37° C. for 24 hours upon which time OD at 595 nm was measured using a plate reader (Spectra Max 190). IC50 values were calculated using OD values and concentrations with a 4-parameter logistic model. Control experiments used a 10% DMSO/H2O stock serially diluted to the same 24 concentrations. Compounds were tested in triplicate from three independent overnight cultures.
# [1] = system: P. aeruginosa strains PAO1 and PA14; experiment: Inhibitory activity against P. aeruginosa, strain not separated in text; format: cell-based, Pseudomonas aeruginosa; settings: compared with promysalin
# Procedure: as §2
# as §1, with “Compounds” for “P. aeruginosa PA01, and PA14 were gifts from Prof. George O'Toole (Dartmouth Medical School). Bacterial cultures were grown from freezer stocks overnight (16-24 hr) with shaking at 37° C. in Tryptic Soy Broth (TSB) media (10 mL). Growth curves were obtained for PA01 and PA14 to determine the OD of each strain in exponential growth; OD readings at 595 nm were taken every 10 minutes for 6 hours in a plate reader at 37° C. with shaking and repeated six times. (see FIGS. 6A and 6B) Compounds”
# With a library of sixteen analogs in hand, all of the compounds were evaluated for inhibitory activity against P. aeruginosa strains PAO1 and PA14. […] The inhibition data supported our initial hypothesis that the conformation of promysalin is exquisitely linked to its inhibition of PA. Of our modifications to the proline structure, fluorination (9)—being the smallest steric perturbation, was the only compound with equipotency to that of promysalin.
# PaPiuA = experiment: Isothermal microcalorimetry titration; format: binding, Pseudomonas aeruginosa; settings: 25° C.
# Procedure: Titrations were performed using 5 μl injections of 164 μM (using ε280=6 714 1 mol-1 cm-1 Li et al. Chemistry and Biology 2011) of the ligand in 17 μM of purified PaPiuA (Moynie et al. Antimicrobial Agents and Chemotherapy 2017) in the same buffer (50 mM sodium phosphate pH 7.5, 50 mM NaCl, 0.8% OctylPOE). The heats of dilution measured from injection of the ligands into the buffer were subtracted from the experimental data and titration curves were fitted to a single site binding using Origin software.
# [2] = system: P. putida (PP KT2440, PP RW10S); experiment: Zone of inhibition / growth in defined media; format: cell-based, Pseudomonas putida
# Procedure: (§3) Bacterial strains (PA14, PAO1, KT2440, and RW10S1) were grown at 37° C. in TSB medium or on agar plates.
# (§4) 100 μL overnight culture was added to TSB or M9 agar plates and bacterial lawns were ‘created’ using Roll & Grow Plating Beads. Compound stock solution 20 μL of a 250 μM solution, 10 μL of a 10 mg/mL gentamicin solution, and 20 μL of a 250 μM DMSO control (stock=10% DMSO/H2O) was absorbed into discs and allowed to dry. Discs were placed on the plates and incubated at 37° C. for 24 hours. Assay was run in triplicate from separate overnight cultures.
# CAS assay (CAS agar) = format: physicochemical; settings: at concentrations ranging from 6-100 μM; reduced affinity compared to EDTA
# Procedure: CAS agar was prepared as described previously (Cordero, et al., PNAS, 2012, 109, 49, 29059). 10 μL of solution at given concentration were dosed onto plates and imaged after 24 hours. Stock solutions were made in 10% DMSO/H2O.
# Gram-positive bacteria = settings: Li et al., 2011; cited from earlier work
# [3] = system: P. aeruginosa strains PAO1 and PA14; settings: cited from earlier work
# [4] = system: P. aeruginosa (PA14, PA01); experiment: Zone of inhibition / growth in defined media; format: cell-based, Pseudomonas aeruginosa
# Procedure: as §3, §4
# [5] = Kaduskar et al., 2016; cited from earlier work
# [6] = system: pyoverdine production in P. putida KT2440; settings: cited from earlier work
# [7] = average of EXPT 1-3, read-out: IC50 PA01 AVG
# [8] = averages of three independent experiments, read-out: IC50 PA01
# [9] = single trial 1, read-out: IC50 PA01 EXPT 1
# [10] = single trial 2, read-out: IC50 PA01 EXPT 2
# [11] = single trial 3, read-out: IC50 PA01 EXPT 3
# [12] = average of EXPT 1-3, read-out: IC50 PA14 AVG
# [13] = averages of three independent experiments, read-out: IC50 PA14
# [14] = single trial 1, read-out: IC50 PA14 EXPT 1
# [15] = single trial 2, read-out: IC50 PA14 EXPT 2
# [16] = single trial 3, read-out: IC50 PA14 EXPT 3
Compound,pIC50 (P. aeruginosa PA01; [7]),pIC50 (P. aeruginosa PA01; [8]),pIC50 (P. aeruginosa PA01; [9]),pIC50 (P. aeruginosa PA01; [10]),pIC50 (P. aeruginosa PA01; [11]),pIC50 (P. aeruginosa PA14; [12]),pIC50 (P. aeruginosa PA14; [13]),pIC50 (P. aeruginosa PA14; [14]),pIC50 (P. aeruginosa PA14; [15]),pIC50 (P. aeruginosa PA14; [16]),"inhibitory activity against P. aeruginosa, in words (SAR) [1]",further results
"CCCCCC[C@H](C/C=C/CC[C@@H](O)C(N)=O)OC(=O)[C@@H]1CC=CN1C(=O)c1ccccc1O [compound 21, (7R,13R,E)-14-amino-13-hydroxy-14-oxotetradec-9-en-7-yl (S)-1-(2-hydroxybenzoyl)-2,3-dihydro-1H-pyrrole-2-carboxylate]",5.08,5.08,4.99,5.09,5.17,7.17,7.17,6.92,7.30,7.52,equipotent,–
"CCCCCC[C@H](CCCCC[C@@H](O)C(N)=O)OC(=O)[C@@H]1CC=CN1C(=O)c1ccccc1OC [compound 11, (1R,7R)-1-carbamoyl-1-hydroxytridecan-7-yl (2S)-1-(2-methoxybenzoyl)-2,3-dihydro-1H-pyrrole-2-carboxylate]",4.25,4.24,4.23,4.26,4.26,5.17,5.17,5.16,5.23,5.13,an order of magnitude less potency,–
"CCCCCC[C@H](CCCCC[C@@H](O)C(N)=O)OC(=O)[C@@H]1CC(C)=CN1C(=O)c1ccccc1O [compound 10, (7R,13R)-14-amino-13-hydroxy-14-oxotetradecan-7-yl (S)-1-(2-hydroxybenzoyl)-4-methyl-2,3-dihydro-1H-pyrrole-2-carboxylate]",4.50,4.49,4.49,4.49,4.51,4.94,4.92,4.97,4.95,4.91,slightly tolerated,–
"CCCCCC[C@H](CCCCC[C@@H](O)C(N)=O)OC(=O)[C@@H]1CCCN1C(=O)c1ccccc1O [compound 6, (1R,7R)-1-carbamoyl-1-hydroxytridecan-7-yl (2S)-1-(2-hydroxybenzoyl)pyrrolidine-2-carboxylate]",3.96,3.95,3.95,4.00,3.92,4.55,4.55,4.61,4.57,4.47,modest activity,–
"CCCCCC[C@H](CCCCC[C@@H](O)C(N)=O)OC(=O)[C@@H]1CC=CN1C(=O)c1ccccc1O [1 (2R,8R), promysalin]",5.39,5.39,5.35,5.36,5.45,7.17,7.17,7.00,7.70,7.10,–,"binding to PiuA (isothermal microcalorimetry) (PaPiuA): no appreciable interaction; pIC50 (P. aeruginosa PA14; preliminary screening for probe design, read-out: IC50 in PA14): 7.20; zone of inhibition ([2]; M9, succinate as sole carbon source, iron-limiting, both PP strains including producing organism): clear zone of inhibition; activity in TSB and glucose+Fe media ([2]; P. putida): not P. putida; Fe^3+ chelation on CAS agar (CAS assay (CAS agar)): positive; susceptibility of Gram-positive bacteria (Gram-positive bacteria): no susceptibility; activity against PA (literature) [3]: nM concentrations; activity in TSB and glucose+Fe media [4]: active; stability under mildly acidic conditions [5]: instability; production of pyoverdine in P. putida KT2440 [6]: inhibits"
"CCCCCC[C@H](CCCCC[C@@H](O)C(N)=O)OC(=O)[C@@H]1CC(F)=CN1C(=O)c1ccccc1O [compound 9, (7R,13R)-14-amino-13-hydroxy-14-oxotetradecan-7-yl (S)-4-fluoro-1-(2-hydroxybenzoyl)-2,3-dihydro-1H-pyrrole-2-carboxylate]",5.11,5.11,5.09,5.07,5.19,7.72,7.72,7.40,8.00,8.00,equipotency,–
